Source: patent US10746637B2, “Aldehyde scavenging agent for retrieving elements from fixed tissue” (University of Houston System, priority 2013, dated 2020)
Like-named read-outs stand apart in the source and are kept apart here.

How the values were obtained:
[1] = test system: collagen IV
[2] = test system: GFAP; experiment: Microscope images of GFAP immunostaining after antigen retrieval (FIGS. 15-18)
[3] = test system: Angiotensin I; experiment: Mass spectrometry of formalin treated Angiotensin I after heating with aldehyde scavenging compounds; conditions: 5% compound, 95° C., 45 minutes
Procedure: Angiotensin I is treated with formalin at room temperature for 48 hours. […] Mass-spectrometry is used to analyze the compositions of the Angiotensin I before and after treatment by each compound. Samples of Angiotensin I before (FIG. 11A) and after (FIG. 11B) formalin treatments are used as the controls for the experiment. Peaks at m/z 1296 represent unmodified Angiotensin I. Peaks at m/z 1308 represent Angiotensin I with 1 methylene unit. Peaks at m/z 1320 represent Angiotensin I with 2 methylene units. Peaks at m/z 1338 represent Angiotensin I with 1 methylene unit and 1 hydroxymethylene group. Peaks at m/z 1350 represent Angiotensin I with 2 methylene units and 1 hydroxymethylene group.

[4] = test system: Collagen IV; experiment: Immunohistochemical staining of Collagen IV on formalin fixed paraffin embedded mouse brain sections after antigen retrieval with formaldehyde scavengers and enhancer; set-up: key: − being non-reactive; Immunoreactivity was scored on a scale of − to +++; Immunoreactivity was scored on a scale of − to +++; +++ being highly reactive; conditions: 45 minutes at 95° C.
Procedure: 12-month-old C57Bl6J mice were housed under controlled environment conditions on a condition al 12 hour light dark cycle. Following sacrifice, brains were post-fixed in 4% paraformaldehyde for 72 hours at […] and then transferred to 70% ethanol solution where they were stored at 4° C. Tissue was paraffin-processed using convention dehydration and embedding, and then sectioned at 5 μm intervals.
Tissues were deparaffinized and rehydrated. Slides were placed in a plastic Coplin jar containing either distilled water or a combination of formaldehyde scavengers in combination with an enhancer. Jars were covered with a loose fitting screw cap and heated in a pressure cooker for 45 minutes at 95° C. After heating, the Coplin jars were removed and allowed to cool and rinsed in TBST for five minutes.
Immunohistochemical staining was performed using a three-step immunostaining technique using the ABC method. Briefly, all incubations were performed as follows: 1) primary antibodies were incubated overnight at 4° C., 2) secondary antibodies were incubated for 10 minutes at room temperature, 3) streptavidin-conjugated enzyme was incubated for 10 minutes at room temperature, 4) peroxidase substrate was incubated for 1 minute.

[5] = test system: RNA; experiment: Recovery of RNA from formalin-fixed paraffin-embedded tissue samples (FIG. 30)
[6] = test system: collagen IV; experiment: Antigen retrieval and immunodetection of collagen IV in paraformaldehyde fixed tissues (general method); conditions: 0.05% maleic anhydride pretreatment; compared with TBST, low pH sodium citrate, pepsin (FIGS. 2A-2D)
Procedure: The solution is heated to about 70° C. to about 95° C. for about 30 minutes. The ensuing chemical reaction enables the unmasking or retrieval of the chemical epitopes. The formaldehyde-fixed tissue is placed into the heated solution for about 30 minutes and then washed. The tissues can then be stained to detect the protein of interest.

[7] = test system: blood vessels; experiment: Antigen retrieval in paraformaldehyde fixed vascular tissue, visualization of blood vessels; conditions: paraformaldehyde fixed tissue heated in solution of compound (FIGS. 4A-4E)
Text: Paraformaldehyde fixed tissue samples are heated in solutions of compounds prepared as described in Example 1 and the blood vessels in the tissue are visualized.

[8] = test system: Collagen IV; experiment: Immunohistochemical staining of Collagen IV after antigen retrieval with 0.05% maleic acid and cooling in a second solution; set-up: species or system mouse; key to Result (immunoreactivity, Collagen IV staining): − being non-reactive; Immunoreactivity was scored on a scale of − to +++; Immunoreactivity was scored on a scale of − to +++; +++ being highly reactive; conditions: for immunostaining of Collagen IV after antigen retrieval with maleic acid and cooling to room temperature: FIGS. 31A-31C, compared to dH2O; for Result (immunoreactivity, Collagen IV staining): Table 9, retrieval with 0.05% maleic acid 45 minutes at 95° C., then cooling to room temperature in the named solution (10% guanidine or 2,2,2-trifluoroethanol in water)
Procedure: 12-month-old […] mice were housed under controlled environment conditions on a condition al 12 hour light dark cycle. Following sacrifice, brains were post-fixed in 4% paraformaldehyde for 72 hours at 4° C. and then transferred to 70% ethanol solution where they were stored at 4° C. Tissue was paraffin-processed using convention dehydration and embedding, and then sectioned at 5 μm intervals. Tissues were deparaffinized and rehydrated. […] Jars were covered with a loose fitting screw cap and heated in a pressure cooker for 45 minutes at 95° C. After heating, the Coplin jars were removed and slides were allowed to cool to room temperature in either 10% guanidine or 2,2,2-trifluoroethanol in water and rinsed in TBST for five minutes. Immunohistochemical staining was performed using a three-step immunostaining technique using the ABC method. Briefly, all incubations were performed as follows: 1) primary antibodies were incubated overnight at 4° C., 2) secondary antibodies were incubated for 10 minutes at room temperature, 3) streptavidin-conjugated enzyme was incubated for 10 minutes at room temperature, 4) peroxidase substrate was incubated for 1 minute.

[9] = microscope images, figure legends
[10] = Table 2, aniline compounds, FFPE mouse brain sections
[11] = compared to control buffer (FIG. 30)

`NC(=O)C[C@H](N)C(=O)O` [L-asparagine] was tested. Which “immunostaining of Collagen IV after antigen retrieval” value [1, 9] did it give?
The value was “enhanced immunostaining”.

`O=S([O-])O.[Na+]` [sodium bisulfite] was tested. Which “immunostaining of GFAP after antigen retrieval” value (shortened to “immunostaining of GFAP”) [2] did it give?
The value was “enhanced immunostaining”.

How did the “immunostaining of Collagen IV after antigen retrieval” value [1, 9] turn out when `CC(=O)CC(N)=O` [acetoacetamide] was run?
The value was “enhanced immunostaining”.

`O=C(O)CC(O)(CC(=O)O)C(=O)O` [citric acid, reference compound] was tested. Which “amount of Angiotensin I with 2 methylene units (m/z 1320)” value [3] did it give?
Its value is “significantly reduce”.

And the “content of Angiotensin I with 1 methylene unit and 1 hydroxymethylene group (m/z 1338)” value [3]?
Its value is “significantly reduce”.

And the “retrieval of formalin adducts of Angiotensin I” value [3]?
Its value is “significant retrieval of formalin adducts”.

How did the “Result (immunoreactivity, Collagen IV staining)” value (shortened to “Result”) [4, 10] turn out when `Nc1ccc(O)cc1` [4-Aminophenol] was run?
Its value is “++”.

What about the “recovery of RNA from formalin-fixed paraffin-embedded tissue samples” value (“recovery of RNA” below) [5, 11] of the same compound?
The value was “enhanced recovery of RNA”.

And the “immunostaining of Collagen IV after antigen retrieval” value [1, 9]?
The value was “enhanced immunostaining”.

Which results are given for `N[C@@H](CS)C(=O)O` [cysteine]?
retrieval of formalin adducts of Angiotensin I [3]: significant retrieval of formalin adducts; immunostaining of GFAP after antigen retrieval [2, 9]: enhanced immunostaining

`O=C1C=CC(=O)O1` [maleic anhydride] was tested. Which “antigen retrieval and immunodetection of collagen IV” value [6] did it give?
Its value is “Superior antigen retrieval and immunodetection”.

And the “antigen retrieval with visualization of the blood vessels” value (shortened to “antigen retrieval with visualization”) [7]?
The value was “successful antigen retrieval”.

For `CC(N)(CO)CO` [2-amino-2-methyl-1,3-propanediol], which “immunostaining of Collagen IV after antigen retrieval” value [1, 9] is on record?
The value was “enhanced immunostaining”.

`O=C1CCCN1` [2-pyrrolidinone] was tested. Which “immunostaining of Collagen IV after antigen retrieval” value [1, 9] did it give?
Its value is “enhanced immunostaining”.

Which “Result” value [4, 10] does the source give for `COc1ccc(N)c(C(=O)O)c1` [2-Amino-5-methoxybenzoic acid] here?
The value was “−”.

And the “recovery of RNA” value [5, 11]?
The value was “enhanced recovery of RNA”.

Which “immunostaining of Collagen IV after antigen retrieval with maleic acid and cooling to room temperature” value [8] does the source give for `OCC(F)(F)F` [2,2,2-Trifluoroethanol] here?
The value was “enhanced immunostaining”.

What about the “Result” value [8] of the same compound?
The value was “++”.

How did the “immunostaining of Collagen IV after antigen retrieval” value [1, 9] turn out when `O=C(OC[C@H]1O[C@@H](OC(=O)c2cc(O)c(O)c(OC(=O)c3cc(O)c(O)c(O)c3)c2)[C@H](OC(=O)c2cc(O)c(O)c(OC(=O)c3cc(O)c(O)c(O)c3)c2)[C@@H](OC(=O)c2cc(O)c(O)c(OC(=O)c3cc(O)c(O)c(O)c3)c2)[C@@H]1OC(=O)c1cc(O)c(O)c(OC(=O)c2cc(O)c(O)c(O)c2)c1)c1cc(O)c(O)c(OC(=O)c2cc(O)c(O)c(O)c2)c1` [tannic acid] was run?
Its value is “enhanced immunostaining”.

With `N=C(N)N` [Guanidine] as the compound, how does the “immunostaining of Collagen IV after antigen retrieval with maleic acid and cooling to room temperature” value [8] read?
The value was “enhanced immunostaining”.

And the “Result” value [8]?
Its value is “++”.

And the “amount of Angiotensin I with 2 methylene units (m/z 1320)” value [3]?
Its value is “does not exhibit any impact”.

And the “content of Angiotensin I with 1 methylene unit and 1 hydroxymethylene group (m/z 1338)” value [3]?
The value was “minimal ability to retrieve”.

What about the “immunostaining of Collagen IV after antigen retrieval” value [1, 9] of the same compound?
Its value is “enhanced immunostaining”.

`O=C1CCC(=O)N1` [succinimide] was tested. Which “immunostaining of Collagen IV after antigen retrieval” value [1, 9] did it give?
Its value is “enhanced immunostaining”.

For `NCCS` [cysteamine], which “immunostaining of GFAP” value [2, 9] is on record?
Its value is “enhanced immunostaining”.

Which results are given for `O=C1NCCN1` [imidazolidone]?
amount of Angiotensin I with 2 methylene units (m/z 1320) [3]: significantly reduce; content of unmodified Angiotensin I (m/z 1296) [3]: higher content of unmodified Angiotensin I

Which “antigen retrieval with visualization” value [7] does the source give for `O=C1CCC(=O)O1` [succinic anhydride, reference compound] here?
Its value is “no vasculature is visible”.

`Sc1nc(S)nc(S)n1` [1,3,5-triazine-2,4,6-trithiol] was tested. Which “immunostaining of GFAP” value [2, 9] did it give?
The value was “enhanced immunostaining”.

For `O=C(O)/C=C/C(=O)O` [fumaric acid, reference compound], which “antigen retrieval with visualization” value [7] is on record?
The value was “significant reduction in activity”.

`NO` [1% Hydroxylamine, Hydroxylamine] was tested. Which “Result” value ([4]; Table 3, 1% hydroxylamine alone or with 4-aminophenol, concentrations in label) did it give?
Its value is “+”.

And the “Result” value ([4]; Table 4, 1% hydroxylamine alone or with aniline, concentrations in label)?
Its value is “+”.

And the “Result” value ([4]; Table 5, 0.5% hydroxylamine alone or with aniline, concentrations in label)?
Its value is “+”.

And the “retrieval of formalin adducts of Angiotensin I” value [3]?
The value was “significant retrieval of formalin adducts”.

And the “recovery of RNA” value [5, 11]?
The value was “enhanced recovery of RNA”.

And the “immunostaining of Collagen IV after antigen retrieval” value [1, 9]?
The value was “enhanced immunostaining”.

`NOCc1ccccc1` [1% O-Benzylhydroxylamine, O-Benzylhydroxylamine] was tested. Which “Result” value ([4]; Table 6, 1% O-benzylhydroxylamine alone or with aniline, concentrations in label) did it give?
Its value is “+”.

What about the “Result” value ([4]; Table 7, 0.5% O-benzylhydroxylamine alone or with aniline, concentrations in label) of the same compound?
The value was “+”.

What about the “recovery of RNA” value [5, 11] of the same compound?
The value was “enhanced recovery of RNA”.

And the “immunostaining of Collagen IV after antigen retrieval” value [1, 9]?
Its value is “enhanced immunostaining”.

What does the source list for `CCOc1ccc(N)cc1` [4-Ethoxyaniline]?
Result (immunoreactivity, Collagen IV staining) [4, 10]: +; immunostaining of Collagen IV after antigen retrieval [1]: enhanced immunostaining

With `O=C1CC(=O)NC(=O)N1` [barbituric acid] as the compound, how does the “immunostaining of Collagen IV after antigen retrieval” value [1] read?
Its value is “enhanced immunostaining”.

How did the “Result” value [4, 10] turn out when `COc1ccc(N)cc1` [p-Anisidine] was run?
Its value is “++”.

And the “recovery of RNA” value [5]?
The value was “enhanced recovery of RNA”.

What about the “immunostaining of Collagen IV after antigen retrieval” value [1] of the same compound?
Its value is “enhanced immunostaining”.

How did the “immunostaining of Collagen IV after antigen retrieval” value [1, 9] turn out when `CCCC(N)O` (centres unmarked) [1-amino-1-butanol] was run?
The value was “enhanced immunostaining”.

For `Cc1ncc(CO)c(CN)c1O` [pyridoxamine], which “immunostaining of Collagen IV after antigen retrieval” value [1, 9] is on record?
The value was “enhanced immunostaining”.

`Nc1ccccc1` [Aniline] was tested. Which “Result” value [4, 10] did it give?
The value was “++”.

And the “recovery of RNA” value [5, 11]?
The value was “enhanced recovery of RNA”.

And the “immunostaining of Collagen IV after antigen retrieval” value [1, 9]?
The value was “enhanced immunostaining”.

What does the source list for `NOCC(=O)O` [O-(carboxymethyl)hydroxylamine]?
recovery of RNA from formalin-fixed paraffin-embedded tissue samples [5, 11]: enhanced recovery of RNA; immunostaining of Collagen IV after antigen retrieval [1, 9]: enhanced immunostaining

`CCON` [O-ethylhydroxylamine] was tested. Which “recovery of RNA” value [5, 11] did it give?
The value was “enhanced recovery of RNA”.

What about the “immunostaining of Collagen IV after antigen retrieval” value [1, 9] of the same compound?
The value was “enhanced immunostaining”.

How did the “immunostaining of GFAP” value [2, 9] turn out when `O=S([O-])S(=O)(=O)[O-].[Na+].[Na+]` [sodium metabisulfite] was run?
The value was “enhanced immunostaining”.

With `CC1=C(C)C(=O)OC1=O` [2,3-dimethylmaleic anhydride] as the compound, how does the “antigen retrieval with visualization” value [7] read?
Its value is “successful antigen retrieval”.

Which results are given for `Nc1ccc(N)cc1` [p-Phenylenediamine]?
Result (immunoreactivity, Collagen IV staining) [4, 10]: +; immunostaining of Collagen IV after antigen retrieval [1]: enhanced immunostaining

`CC1(C)CC(=O)CC(=O)C1` [dimedone, 5,5-dimethyl-1,3-cylohexanedione] was tested. Which “immunostaining of Collagen IV after antigen retrieval” value [1, 9] did it give?
Its value is “enhanced immunostaining”.

For `Nc1ccc(S(=O)(=O)O)cc1` [Sulfanilic acid], which “Result” value [4, 10] is on record?
Its value is “++”.

What about the “recovery of RNA” value [5, 11] of the same compound?
The value was “enhanced recovery of RNA”.

What about the “immunostaining of Collagen IV after antigen retrieval” value [1, 9] of the same compound?
Its value is “enhanced immunostaining”.
